Consider eight compounds from the NIST ThermoML archive (doi:10.1016/j.jct.2012.05.029).

Structures are written as SMILES. ± gives the expanded uncertainty stated by the source.

This data set is described as follows: molar enthalpy of vaporization or sublimation. As to conditions: Liquid, Thermogravimetric Analysis.

As to `CCCC[n+]1ccn(C)c1.O=S(=O)([N-]S(=O)(=O)C(F)(F)F)C(F)(F)F`, the molar enthalpy (541.8 K) is 27.1 ± 0.717 kcal/mol.

On to `CCCCCCCCCCCCn1cc[n+](C)c1.O=S(=O)([N-]S(=O)(=O)C(F)(F)F)C(F)(F)F`, for which the molar enthalpy (533.5 K) turned out to be 30.1 ± 0.717 kcal/mol.

For `CCCCCC[n+]1ccn(C)c1.O=S(=O)([N-]S(=O)(=O)C(F)(F)F)C(F)(F)F`, the molar enthalpy (541.8 K) was 28.2 ± 0.717 kcal/mol.

Turning to `CCCCCCCCCCCCCCCCCC[n+]1ccn(C)c1.O=S(=O)([N-]S(=O)(=O)C(F)(F)F)C(F)(F)F`, where the note is “582.5 K”, the molar enthalpy came to 33.1 ± 0.717 kcal/mol.

With `CCCCCCCCCCCCCCn1cc[n+](C)c1.O=S(=O)([N-]S(=O)(=O)C(F)(F)F)C(F)(F)F`, for the setting “541.8 K”, the molar enthalpy was 31.7 ± 0.717 kcal/mol.

On to `CCCCCCCCn1cc[n+](C)c1.O=S(=O)([N-]S(=O)(=O)C(F)(F)F)C(F)(F)F`, for which the molar enthalpy (541.8 K) stood at 29.3 ± 0.717 kcal/mol.

In the case of `CCCCCCCCCCn1cc[n+](C)c1.O=S(=O)([N-]S(=O)(=O)C(F)(F)F)C(F)(F)F`, the molar enthalpy (522 K) stood at 29.9 ± 0.717 kcal/mol.

For `CCCCCCCCCCCCCCCCn1cc[n+](C)c1.O=S(=O)([N-]S(=O)(=O)C(F)(F)F)C(F)(F)F`, the molar enthalpy (541.8 K) amounted to 32.6 ± 0.717 kcal/mol.
